From patent US12479858B2, “Macrocyclic compounds as sting agonists and methods and uses thereof” (Lupin Limited, priority 2019, dated 2025) come the findings set out here.

Counter-ions that a name gives are not always drawn. Like-named read-outs stand apart in the source and are kept apart here.

The test system of one series is CT26 Allograft. In words: Tumor volume in CT26 allograft BALB/c mice model, intravenous administration. The series is classed as in vivo. The following applies: for effect on tumor volume / subjects exhibiting complete tumor regression: i.v., indicated dose at days 1, 4, and 8. On the procedure: Effect of Compounds on Tumor Volume in CT26 Allograft BALB/c Mice Model by Intravenous (i.v.) Administration
Healthy, female BALB/c mice in the age group of 5-8 weeks issued from Research Animal Facility (RAF). These mice were housed in individually ventilated cages (IVC) in the experimental animal room and were acclimatized not less than 5 days prior to cell inoculation. All the experimental activities were carried out inside the biosafety cabinet to ensure sterility. Under aseptic conditions, Allograft tumor model was generated by inoculating BALB/c mice with 0.1 million CT26 single cell suspension (colorectal cancer model), using 1 mL disposable syringe fitted with a 26G ½″ sterile needle. Each mouse was inoculated with 100 μL of CT26 cell suspension in phosphate buffered saline (PBS) media, subcutaneously in right flank region. Mice were randomized into different groups, post cell inoculation, with approximately equal mean and equal variation (S.E.M.) of tumor volumes in various treatment groups including vehicle control group.
Tumor size was measured with Vernier caliper when the tumor became palpable. Tumor volume (T. V.) was calculated by using the formula: Tumor volume (mm^3)=(L×W^2)/2 • Where, L—Length of tumor, W—Width of tumor
Mice were selected and randomized, on the basis of tumor volume, into required no. of groups with approximately equal mean and equal variation on day 1 of treatment, post-tumor cell inoculation. All study groups were treated via intravenous route on day 1, 4 and 8 dosing schedule, through lateral tail vein at a dose volume of 5 mL/kg.
Tumor sizes were measured with Vernier caliper twice weekly and body weights of mice were recorded daily.
Percent tumor growth inhibition (% TGI) was calculated using the formula: % TGI=[1−(Tf−Ti)/(Cf−Ci)]×100 Wherein Tf and Ti are the final and initial test tumor volumes, respectively, and Cf and Ci are the final and initial control mean tumor volumes, respectively.
Percent Tumor Regression (% TR) was calculated using the formula: % TR=[(Initial T.V.−Final T.V.)/(Initial T.V.)]×100 Wherein T.V.=Tumor Volume
Body weight change (%) was calculated by using the formula: Body weight change (%)[=(Final B.Wt.)−(Initial B.Wt.)/Initial B.Wt.]×100 Wherein B.Wt.=Body weight

Series [1] in a line: Plasma and tumor compound concentrations in CT26 tumor-bearing mice (LC-MS/MS). It is filed as in vivo, BALB/c mice. The protocol:
Pharmacokinetic and Pharmacodynamic Profiling and Estimation of Immune Cell Infiltration in Tumors Following Treatment with Compounds 2, 6, 8, 12 and 14
Serum and tumor cytokine levels and corresponding compound concentrations in mouse plasma were determined following single-dose intravenous administration in CT26 (murine colorectal carcinoma) tumor-bearing mice. Briefly, naïve BALB/c mice in the age group of 6-8 weeks were inoculated with 0.1 million CT-26 cells/animal in phosphate buffered saline (PBS), subcutaneously. […] Blood and tumor samples were harvested at various time points up to 24 h post-dose. Tumor samples were homogenized and prepared for cytokine estimation (ELISA) and compound concentration were determined by LC-MS/MS. Serum aliquots and tumor samples were snap-frozen and stored at −80° C. till further analysis. Serum and tumor samples were evaluated for Interferon beta (IFNβ), interleukin-6 (IL-6) and tumor necrosis factor alpha (TNFα) by enzyme linked immunosorbent assay (ELISA) using kits from R & D systems (Quantikine mouse IL-6 and TNFα kits) and PBL biosciences (Verikine mouse IFNβ kit).
Bioanalysis of plasma and tumor samples: Plasma and tumor concentrations of test compounds were determined by LC-MS/MS method. Tumor samples were homogenized utilizing a bead-based homogenizer. Plasma samples and tumor homogenates were extracted using protein precipitation method with organic solution containing respective internal standards. Plasma and tumor concentrations were determined against respective calibration curve. Table 3 indicates the concentration of Compound 2 in plasma and tumor at different administered doses. Table 4 indicates the concentration of Compounds 6, 8, 12, and 14 in plasma and tumor at different administered doses. Table 5 indicates cytokine levels for Compound 2 in serum and tumor at different doses. Table 6 indicates cytokine levels for Compounds 6, 8, 12 and 14 in serum and tumor at 0.375 mpk.

Where [2] appears, read: 0.375 mg/kg single i.v., 24 h (Table 4).
Where [3] appears, read: BALB/c, mouse, plasma, intravenous, 0.375 mg/kg single i.v., 3.5 h (Table 4), read-out: Plasma Conc.
Where [4] appears, read: BALB/c, mouse, plasma, intravenous, 0.375 mg/kg single i.v., 8 h (Table 4), read-out: Plasma Conc.
The mark [5] stands for this setting: BALB/c, mouse, plasma, intravenous, 0.375 mg/kg single i.v., 12 h (Table 4), read-out: Plasma Conc.
Where [6] appears, read: BALB/c, mouse, tumor, intravenous, 0.375 mg/kg single i.v., 3.5 h (Table 4), read-out: Tumor Conc.
Setting [7] is: BALB/c, mouse, tumor, intravenous, 0.375 mg/kg single i.v., 8 h (Table 4), read-out: Tumor Conc.
Where [8] appears, read: BALB/c, mouse, tumor, intravenous, 0.375 mg/kg single i.v., 12 h (Table 4), read-out: Tumor Conc.

`CCn1nc(C)cc1C(=O)Nc1nc2cc(C(N)=O)cc3c2n1C/C=C/Cn1c(NC(=O)c2cc(C)nn2CC)nc2cc(C(=O)N[C@H]4CC[C@H](C(=O)O)CC4)cc(c21)OCCCO3` [Compound 2, (1R,4R)-4-((E)-12-carbamoyl-1,15-bis(1-ethyl-3-methyl-1H-pyrazole-5-carboxamido)-8,9,16,19-tetrahydro-7H-6,10-dioxa-2,14,15a,19a-tetraazacyclopentadeca[3,2,1-cd:8,9,10-c′d′]diindene-4-carboxamido)cyclohexane-1-carboxylic acid sodium salt]: in the series on CT26 Allograft (3 mpk (mg/kg)), the “effect on body weight” value is reported as under 10%. For the same compound, the “effect on tumor volume” value with CT26 Allograft is “reduces tumor volume”. In addition, in the series with CT26 Allograft, the “subjects exhibiting complete tumor regression” value was 7 out of 9. In addition, the “effect on tumor volume at high dose” value in the series with CT26 Allograft (two different doses, days 1, 4, and 8, n=10 (FIG. 6)) is “reduces tumor volume”. The concentration at 3.5 h in series [1] (BALB/c, mouse, plasma, intravenous, 0.093 mg/kg single i.v., 3.5 h, read-out: Plasma Conc.) is 110 ± 10 nM; in series [1] (BALB/c, mouse, plasma, intravenous, 0.187 mg/kg single i.v., 3.5 h, read-out: Plasma Conc.) it was 220 ± 20 nM; in series [1] (BALB/c, mouse, plasma, intravenous, 0.375 mg/kg single i.v., 3.5 h (Table 3), read-out: Plasma Conc.), 470 ± 60 nM; in series [1] (BALB/c, mouse, tumor, intravenous, 0.093 mg/kg single i.v., 3.5 h, read-out: Tumor Conc.), 70 ± 20 nM; in series [1] (BALB/c, mouse, tumor, intravenous, 0.187 mg/kg single i.v., 3.5 h, read-out: Tumor Conc.), 90 ± 20 nM; in series [1] (BALB/c, mouse, tumor, intravenous, 0.375 mg/kg single i.v., 3.5 h (Table 3), read-out: Tumor Conc.), 230 ± 120 nM. The concentration at 8 h in series [1] (BALB/c, mouse, plasma, intravenous, 0.093 mg/kg single i.v., 8 h, read-out: Plasma Conc.) was found to be 30 nM; in series [1] (BALB/c, mouse, plasma, intravenous, 0.187 mg/kg single i.v., 8 h, read-out: Plasma Conc.), 40 ± 10 nM; in series [1] (BALB/c, mouse, plasma, intravenous, 0.375 mg/kg single i.v., 8 h (Table 3), read-out: Plasma Conc.) it was 80 ± 10 nM; in series [1] (BALB/c, mouse, tumor, intravenous, 0.093 mg/kg single i.v., 8 h, read-out: Tumor Conc.), 60 ± 30 nM; in series [1] (BALB/c, mouse, tumor, intravenous, 0.187 mg/kg single i.v., 8 h, read-out: Tumor Conc.), 120 ± 80 nM; in series [1] (BALB/c, mouse, tumor, intravenous, 0.375 mg/kg single i.v., 8 h (Table 3), read-out: Tumor Conc.) it was 140 ± 50 nM. The concentration at 12 h in series [1] (BALB/c, mouse, plasma, intravenous, 0.375 mg/kg single i.v., 12 h (Table 3), read-out: Plasma Conc.) amounted to 50 ± 10 nM; in series [1] (BALB/c, mouse, tumor, intravenous, 0.375 mg/kg single i.v., 12 h (Table 3), read-out: Tumor Conc.) it was 110 ± 60 nM. In addition, the “compound levels in tumor” value in series [1] (CT26 tumor-bearing mice, single i.v. dose) is reported as “sustained levels in tumor”.
Regarding `CCn1nc(C)cc1C(=O)Nc1nc2cc(C(N)=O)cc3c2n1C/C=C/Cn1c(NC(=O)c2cc(C)nn2CC)nc2cc(C(=O)N[C@H]4CC[C@H](c5nnn[nH]5)CC4)cc(c21)OCCCO3` [Compound 6, (E)-N-((1R,4R)-4-(1H-tetrazol-5-yl)cyclohexyl)-1,15-bis(1-ethyl-3-methyl-1H-pyrazole-5-carboxamido)-8,9,16,19-tetrahydro-7H-6,10-dioxa-2,14,15a,19a-tetraazacyclopentadeca[3,2,1-cd:8,9,10-c′d′]diindene-4,12-dicarboxamide sodium salt], the “effect on tumor volume” value with CT26 Allograft is reported as “reduces tumor volume”. Besides, the “subjects exhibiting complete tumor regression” value in the series with CT26 Allograft is 7 out of 9. Besides, the “Plasma Conc.” value in series [1] (setting [2]) was 0.01, BLQ,. Moreover, the concentration at 3.5 h was 440 ± 140 nM in series [1] (setting [3]) and 290 ± 120 nM in series [1] (setting [6]). Besides, the values for the concentration at 8 h in series [1] (setting [4]) and in series [1] (setting [7]) were 130 ± 60 nM and 250 ± 40 nM, respectively. Also, the concentration at 12 h was found to be 50 ± 10 nM in series [1] (setting [5]) and 200 ± 50 nM in series [1] (setting [8]). In addition, in series [1] (BALB/c, mouse, tumor, intravenous, 0.375 mg/kg single i.v., 24 h (Table 4), read-out: Tumor Conc.), the concentration at 24 h worked out at 260 ± 30 nM.
Regarding `CCn1nc(C)cc1C(=O)Nc1nc2cc(C(N)=O)cc3c2n1C/C=C/Cn1c(NC(=O)c2cc(C)nn2CC)nc2cc(C(=O)NCCCn4cc(C(=O)O)cn4)cc(c21)OCCCO3` [Compound 8, (E)-1-(3-(12-carbamoyl-1,15-bis(1-ethyl-3-methyl-1H-pyrazole-5-carboxamido)-8,9,16,19-tetrahydro-7H-6,10-dioxa-2,14,15a,19a-tetraazacyclopentadeca[3,2,1-cd:8,9,10-c′d′]diindene-4-carboxamido)propyl)-1H-pyrazole-4-carboxylic acid sodium salt], the “effect on tumor volume” value in the series on CT26 Allograft is “reduces tumor volume”. In addition, in the series on CT26 Allograft, the “subjects exhibiting complete tumor regression” value is given as 5 out of 9. Also, the “Plasma Conc.” value in series [1] (setting [2]) is listed as “BLQ”. Further, in series [1] (setting [2]), the “Tumor Conc.” value is recorded as “BLQ”. The concentration at 3.5 h stood at 40 ± 10 nM in series [1] (setting [3]) and 90 ± 10 nM in series [1] (setting [6]). Also, the concentration at 8 h stood at 20 ± 10 nM in series [1] (setting [4]) and 60 ± 10 nM in series [1] (setting [7]). Also, the concentration at 12 h in series [1] (setting [5]) turned out to be 20 ± 10 nM; in series [1] (setting [8]), 60 nM.
